Laboratory results reported in PubChem BioAssay (NCI).
“And” between values parts separate entries of the source, which are not always exact repeats. Identical values can stand only once.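 48-hour exposure; five concentrations; linearly interpolated endpoints. GI50 = concentration required for 50% inhibition of growth. TGI: concentration producing complete growth inhibition.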

These compounds were tested on MDA-MB-468 breast (assay: NCI-60 cell line screen, 48 h).

SMILES | GI50 | TGI
Cc1ccn2c3c(c(C(=O)O)c2c1)C(=O)c1ccccc1C3=O | 17300 nM | > 100000 nM
O=C(Nc1cccc(-n2ccc3c(NC(=O)c4ccccc4)nccc32)c1)c1cccc(C(F)(F)F)c1 | 29.5 nM | 1540 nM
Cc1cc2nc3c4cc(Cl)ccc4n(CCN(C)C)c3nc2cc1C | 1410 nM | 3580 nM
COc1cc2ncn(-c3cc(OCc4ccccc4Cl)c(C(N)=O)s3)c2cc1OC | 49.9 nM | 429 nM
NC(N)=N/N=C(/c1ccccc1)c1ccc(F)cc1 | 220 nM | 2460 nM
N#CC(=C1SCS1)[N+](=O)[O-] | 249 nM | 846 nM
CC1(C)N=C(N)N=C(N)N1c1ccc(CCCCc2ccc(S(=O)(=O)F)cc2)cc1 | 539 nM | 9330 nM
O=C(CSc1nc2ccc([N+](=O)[O-])cc2[nH]1)Nc1ccc(F)c(Cl)c1 | 1170 nM | 5070 nM
CCN1CCN(c2nc(NCCCNc3ccnc4cc(Cl)ccc34)c3ccccc3n2)CC1 | 1620 nM | 3610 nM
CC(=O)Nc1cccc(-n2c(=O)n(C3CC3)c(=O)c3c(Nc4ccc(I)cc4F)n(C)c(=O)c(C)c32)c1 | 2820 nM and > 10000 nM | 23600 nM and > 10000 nM
CNC(=O)c1ccccc1CC1(O)c2ccccc2Oc2ccccc21 | 3550 nM | 20500 nM
COC1(C(=O)N2Cc3nc(Cl)nc(N[C@H](C)c4cc(N)cc(C(F)(F)F)c4)c3C2)CCOCC1 | 4440 nM | 40100 nM
CN1CCN(CC#Cc2cccc(C(=O)c3cnn(-c4ccc(F)cc4)c3N)c2)CC1 | > 25000 nM | > 25000 nM
C=C1C(=O)O[C@H]2[C@H]1CC/C(CNC(=O)c1c[nH]c3ccc(F)cc13)=C\CC[C@@]1(C)O[C@@H]21 | 658 nM | 2060 nM
O=C(NNc1nc2c(F)cccc2n2cccc12)c1cnccn1 | 535 nM | 2170 nM
COc1ccccc1NC1=C(Cl)C(=O)c2nc(C)ccc2C1=O | 1520 nM | 3060 nM

SMILES | GI50 | TGI
CN(C)CC(=O)N1CCC(c2ccc(NC(=O)c3ncc(C#N)[nH]3)c(C3=CCCCC3)c2)CC1 | 4860 nM | 18500 nM
O=c1cc(-c2cccc(F)c2)[nH]c2cc3c(cc12)OCO3 | 10800 nM | 45200 nM
CCC(C)C1NC(=O)c2nc(oc2-c2ccccc2)-c2csc(n2)-c2csc(n2)-c2nc(oc2C)-c2coc(n2)CNC(=O)C(C(C)CC)NC1=O (centres undefined) | 30 nM | 101 nM
Cc1nn(-c2ccc(F)cc2)c2ncnc(Nc3ccc(NC(=O)Nc4ccc(Cl)c(C(F)(F)F)c4)cc3)c12 | 1800 nM | 4540 nM
COc1cc2c3c(cccc3c1)C(=O)N(CCN1CCCC1)C2=O | 1320 nM | 3700 nM
Fc1cccc(COc2ccc(Nc3ncncc3C#Cc3ccccc3)cc2Cl)c1 | 8770 nM | > 25000 nM
O=C(Nc1nc2ccccc2s1)OCC(F)(F)F | > 100000 nM | > 100000 nM
Cc1ccc2c(C(C[N+](=O)[O-])c3cccs3)c(-c3ccccc3)[nH]c2c1 (centres undefined) | 820 nM | 3020 nM
C#Cc1nc(C(=O)NCCC(=O)Nc2ccc(NC(=O)c3ccc(/C=C/C(=O)c4nccn4C)cc3)cc2)cs1 | 891 nM | 2170 nM
Cc1cc([C@@H](C)Nc2ccccc2C(=O)O)c2nc(N3CCOCC3)cc(=O)n2c1 | 2210 nM | > 10000 nM
COC(=O)C(=O)CC(=O)CCn1ncc(Cl)c(Cl)c1=O | 7010 nM | 22500 nM
CCCCCCCCCCCCCC(=S)NCCCC[C@H](NC(=O)OCc1ccccc1)C(=O)Nc1ccccc1 | 2690 nM | > 100000 nM
COc1cccc(/C=C/C(=O)c2cc3c(N)c(C(=O)Nc4ccccc4C)sc3nc2C)c1 | 887 nM | 2040 nM
Clc1ccccc1C(c1ccccc1)(c1ccccc1)n1ccnc1 | 1770 nM | 6210 nM
Oc1ccccc1/C=N/Nc1ccc2ccccc2n1 | 2600 nM | 14800 nM
C=CC(=O)N[C@H]1C=C(C)c2c(-c3cnc4ccccc4c3)c3c(N)ncnc3n2C1 | 26.5 nM | 485 nM
